Experimental findings from US20050004124A1, “THERAPIES RELATING TO COMBINATIONS OF ALDOSE REDUCTASE INHIBITORS AND CYCLOOXYGENASE-2 INHIBITORS” (priority 2001, published 2005) are described below.

What is called melting point is the temperature of the solid-liquid transition.

Molecules are shown by their SMILES.

As to `O=c1ccc(S(=O)(=O)c2oc3ccccc3c2O)n[nH]1` [Example 16, 6-(3-Hydroxy-benzofuran-2-sulfonyl)-2H-pyridazin-3-one], the melting point fell in the range of 186 to 189 °C.

With `Cn1c(S(=O)(=O)c2ccc(=O)[nH]n2)cc2ccccc21` [Example 40, 6-(N-Methylindole-2-sulfonyl)-2H-pyridazin-3-one], the melting point is 233 to 235 °C. In turn, `O=c1ccc(S(=O)(=O)c2[nH]c3ccccc3c2Cl)n[nH]1` [Example 36, 6-(3-Chloro-indole-2-sulfonyl)-2H-pyridazin-3-one] yielded a melting point of 250 °C.
